Assay results published in patent publication US7259004B1, “Endophytic streptomycetes from higher plants with biological activity” (Montana State University, priority 2002, dated 2007).
Values after ≈ are worked out from the molar mass of the structure shown.

Legend:
[1] = test system: Candida albicans; experiment: microbroth dilution MIC
[2] = test system: Cryptococcus neoformans; experiment: microbroth dilution MIC
[3] = test system: Aspergillus fumigatus; experiment: microbroth dilution MIC
[4] = test system: Plasmodium falciparum strain CSC-1 (Honduras); experiment: antimalarial assay, 3H-phenylalanine radiobioassay in human red blood cells; conditions: for IC50 Plasmodium falciparum: human red blood cells, 3H-phenylalanine, standard deviation of the mean, three experiments
[5] = test system: Human Lung Cancer Epithelial A549; experiment: CellTiter 96 Aqueous Non-Radioactive Cell Proliferation Assay; format: cell-based; conditions: 48 hours, Table 7
Protocol: (§1) The munumbicins were then tested against three human cancer cell lines (ATCC) and human primary mammary epithelial cells (HMECs) (Clonetics; Biowhittaker, Walkersville, Md.) using a CellTiter 96® Aqueous Non-Radioactive Cell Proliferation Assay kit from Promega (Madison, Wis.). The cell lines were A-549 (lung epithelial carcinoma, ATCC CCL-185), ME-180 (cervical epithelial epidermoid carcinoma, ATCC HTB-33), and BT-20 (breast epithelial cancer, ATCC HTB-19), and were grown in the media recommended by ATCC. The primary mammary cells were cultured as recommended by the manufacturer in mammary epithelial cell growth media (MEGM®). […] After seeding, the cells were incubated for five hours at 37° C. before addition of the munumbicins. Two-fold serial dilutions of the munumbicins were made in the culture medium, and a volume equal to that of the seeded cells for each dilution was added to three wells of cells. Each plate also contained some wells with cells plus medium only and some wells with medium only. […] The A-549 and ME-180 cells were incubated for 48 hours. […] The plates were incubated at 37° C. for one to four hours, and the OD490 was determined. The OD reading of all wells was corrected for background by subtracting the reading of wells containing medium only. […] Kakadumycin A was tested against three human cancer cell lines (ATCC) and human primary mammary epithelial cells using the procedure described above for the munumbicins. Kadadumycin B was tested against one human cancer cell line.

[6] = test system: Human Cervical Cancer Epithelial ME180; experiment: as above; format: cell-based; conditions: 48 hours, Table 7
Protocol: as §1

[7] = test system: Candida krusei ATCC 6258; experiment: disk diffusion assay; format: cell-based
[8] = test system: Candida parasilosis ATCC 22019; experiment: disk diffusion assay; format: cell-based, Candida parapsilosis; as to diameter of the zone of inhibition, Candida parasilosis ATCC 22019: key: R = resistant
[9] = test system: Candida albicans ATCC 90028; experiment: disk diffusion assay; format: cell-based; as to diameter of the zone of inhibition, Candida albicans ATCC 90028: key: R = resistant
[10] = test system: Candida parasdosis ATCC 90018; experiment: disk diffusion assay; format: cell-based, Candida parapsilosis; as to diameter of the zone of inhibition, Candida parasdosis ATCC 90018: key: R = resistant
[11] = test system: Candida tropicalis ATCC 750; experiment: disk diffusion assay; format: cell-based; as to diameter of the zone of inhibition, Candida tropicalis ATCC 750: key: R = resistant
[12] = test system: Candida albicans ATCC 24433; experiment: disk diffusion assay; format: cell-based; as to diameter of the zone of inhibition, Candida albicans ATCC 24433: key: R = resistant
[13] = test system: Candida glabrata ATCC 2001; experiment: disk diffusion assay; format: cell-based; as to diameter of the zone of inhibition, Candida glabrata ATCC 2001: key: R = resistant
[14] = test system: Saccharomyces cerevisiae ATCC 9763; experiment: disk diffusion assay; format: cell-based; conditions: A3-5-1 10 micrograms; Flucytosine 10 micrograms; RPMI-glucose agar 35° C.
[15] = test system: Cryptococcus neoformans ATCC 32045; experiment: disk diffusion assay; format: cell-based; conditions: A3-5-1 10 micrograms; Flucytosine 10 micrograms; RPMI-glucose agar 35° C.
[16] = test system: M. tuberculosis H37Rv (ATCC 25618) (drug sensitive); experiment: IC50 in Mycobacteria 7H11 agar; format: cell-based, Mycobacterium tuberculosis; conditions: Mycobacterium tuberculosis; 7H11 agar with 10% OADC
[17] = test system: RNA synthesis in Bacillus subtilis; experiment: macromolecular synthesis whole cell assay, [3H]uridine incorporation; format: cell-based; conditions: 1×MIC
[18] = test system: B. subtilis 1A757; experiment: microbe, parasite or virus in culture; format: cell-based, Bacillus subtilis
[19] = test system: Cell wall synthesis in Bacillus subtilis; experiment: macromolecular synthesis whole cell assay, [3H]N-acetyl glucosamine incorporation; format: cell-based; conditions: 1×MIC
[20] = test system: Enterococcus faecium ATCC 49624; experiment: disk diffusion assay; format: cell-based; conditions: 10 micrograms per disk; ciprofloxacin 5, vancomycin 30 micrograms per disk; 35° C.
[21] = test system: Enterococcus faecium ATCC 51559; experiment: disk diffusion assay; format: cell-based; conditions: 10 micrograms per disk; ciprofloxacin 5, vancomycin 30 micrograms per disk; 35° C.
[22] = test system: Staphyloccus aureus MH II Eli Lilly Co.; experiment: microbroth dilution MIC; conditions: drug sensitive strain
[23] = test system: Human Primary Mammary Epithelial HMEC; experiment: CellTiter 96 Aqueous Non-Radioactive Cell Proliferation Assay; format: cell-based; conditions: 48 hours; Table 7
Protocol: as §1

[24] = test system: Human Breast Cancer Epithelial BT-20; experiment: as above; format: cell-based; conditions: 96-144 hours; Table 7
Protocol: as §1

[25] = test system: Neisseria gonnorhea ATCC 49226; experiment: disk diffusion assay; format: cell-based; conditions: 10 micrograms per disk; ciprofloxacin 5, vancomycin 30 micrograms per disk; GC agar with 1% growth supplement with 5% CO2
[26] = test system: Enterococcus faecalis ATCC 51299; experiment: disk diffusion assay; format: cell-based; conditions: 10 micrograms per disk; ciprofloxacin 5, vancomycin 30 micrograms per disk; 35° C.
[27] = test system: Streptococcus pneumoniae ATCC 49619; experiment: disk diffusion assay; format: cell-based; conditions: 10 micrograms per disk; ciprofloxacin 5, vancomycin 30 micrograms per disk; MHA with 5% dsb. and 5% CO2
[28] = test system: brine shrimp; experiment: brine shrimp assays; conditions: preliminary assays
[29] = test system: Escherichia coli ATCC 25922; experiment: disk diffusion assay; format: cell-based; conditions: 10 micrograms per disk; penicillin G 10 units per disk; 35° C. Also: key: R = resistant.
[30] = test system: human red blood cells
[31] = test system: Staphylococcus aureus ATCC 29213; experiment: disk diffusion assay; format: cell-based; conditions: 10 micrograms per disk; ciprofloxacin 5, vancomycin 30 micrograms per disk; 35° C.
[32] = test system: Acinetobacter sp. ATCC 49137; experiment: disk diffusion assay; format: cell-based; conditions: 10 micrograms per disk; ciprofloxacin 5, vancomycin 30 micrograms per disk; grown at 30° C.
[33] = test system: Rhizoctonia solani; experiment: microbroth dilution MIC, plant associated microorganisms; format: cell-based; conditions: PD broth, 48 hours at 23° C.
Protocol: (§2) Incubation was for 48 hours at 23° C. A plant pathogenic strain of Pseudomonas syringae was also tested using the same PD broth medium and with concentrations of colony forming units as given above. The organisms were obtained from the Montana State University plant pathogen culture collection administered by Dr. […] The relative activities against plant pathogenic fungi ranged from a few tenths of a microgram up to thirty micrograms. Table 2 provides the results of tests of inhibitory activity of the munumbicins against various plant-pathogenic fungi and one pathogenic bacterium. The data are reported as MIC values in micrograms/ml.

[34] = test system: Pythium ultimum; experiment: as above; format: cell-based; conditions: PD broth, 48 hours at 23° C.
Protocol: as §2

[35] = test system: Sclerotinia sclerotiorum; experiment: as above; format: cell-based; conditions: PD broth, 48 hours at 23° C.
Protocol: as §2

[36] = test system: Pseudomonas syringae; experiment: as above; format: cell-based; conditions: PD broth
Protocol: as §2

[37] = test system: Phytophthora cinnamomi; experiment: as above; format: cell-based; conditions: PD broth, 48 hours at 23° C.
Protocol: as §2

[38] = test system: Geotrichum candidum; experiment: as above; format: cell-based; conditions: PD broth, 48 hours at 23° C.
Protocol: as §2

[39] = test system: Vibrio fischeri PIC 345; experiment: disk diffusion assay; format: cell-based; conditions: 10 micrograms per disk; ciprofloxacin 5, vancomycin 30 micrograms per disk; 35° C.
[40] = test system: S. epidermis ATCC 12228; experiment: disk diffusion assay; format: cell-based, Staphylococcus epidermidis; conditions: 10 micrograms per disk; 35° C.
[41] = test system: Enterococcus faecalis ATCC 29212; experiment: disk diffusion assay; format: cell-based; conditions: 10 micrograms per disk; ciprofloxacin 5, vancomycin 30 micrograms per disk; 35° C.
[42] = test system: Shigella dysenteriae ATCC 11835; experiment: disk diffusion assay; format: cell-based; conditions: 10 micrograms per disk; 35° C.
[43] = test system: S. maltophilia ATCC 13637; experiment: disk diffusion assay; format: cell-based, Stenotrophomas maltophilia; conditions: 10 micrograms per disk; 35° C.
[44] = test system: Pseudomonas aeruginosa ATCC 27853; experiment: disk diffusion assay; format: cell-based; conditions: 10 micrograms per disk; ciprofloxacin 5, vancomycin 30 micrograms per disk; 35° C. Also: key: R = resistant.
[45] = A3-5-1 10 micrograms, Flucytosine 10 micrograms, RPMI-glucose agar 35° C.

C[C@@H]1[C@H](O)[C@@H](C)/C=C/C=C/C=C/C=C/C=C/C=C/C=C/[C@H](O[C@@H]2O[C@H](C)[C@@H](O)[C@H](N)[C@@H]2O)C[C@@H]2O[C@](O)(C[C@@H](O)C[C@@H](O)[C@H](O)CC[C@@H](O)C[C@@H](O)CC(=O)O[C@H]1C)C[C@H](O)[C@H]2C(=O)O [Amphotericin B, reference compound]
MIC Candida albicans [1]: 1.25 micrograms/ml | MIC Cryptococcus neoformans [2]: 0.13 micrograms/ml | MIC Aspergillus fumigatus [3]: 0.62 micrograms/ml

CCN(CC)CCCC(C)Nc1ccnc2cc(Cl)ccc12 (stereo not drawn) [Chloroquine, reference compound]
IC50 ([4]; Plasmodium falciparum, Erythrocyte, read-out: IC50 Plasmodium falciparum): 7 ng/mL (≈ 0.0219 µM) | IC50 Plasmodium falciparum [4]: 7.0 ± 0 ng/mL (≈ 0.0219 µM)

CC[C@H]1OC(=O)[C@H](C)[C@@H](O[C@H]2C[C@@](C)(OC)[C@@H](O)[C@H](C)O2)[C@H](C)[C@@H](O[C@@H]2O[C@H](C)C[C@H](N(C)C)[C@H]2O)[C@](C)(O)C[C@@H](C)C(=O)[C@H](C)[C@@H](O)[C@]1(C)O [Erythromycin, reference compound]
IC50 ([5]; Homo sapiens, A549, read-out: IC50 Human Lung Cancer Epithelial A549): > 40000 ng/mL | IC50 ([6]; Homo sapiens, ME-180, read-out: IC50 Human Cervical Cancer Epithelial ME180): > 40000 ng/mL

Nc1[nH]c(=O)ncc1F [Flucytosine, reference compound]
Disk Diffusion, Candida krusei 6258 [7, 45]: 7 mm | Disk Diffusion, Candida parapsilosis 22019 [8, 45]: 46 mm | Disk Diffusion, Candida albicans 90028 [9, 45]: 37 mm | Disk Diffusion, Candida parapsilosis 90018 [10, 45]: 57 mm | Disk Diffusion, Candida tropicalis 750 [11, 45]: 47 mm | Disk Diffusion, Candida albicans 24433 [12, 45]: 20 mm | Disk Diffusion, Candida glabrata 2001 [13, 45]: 53 mm | Disk Diffusion, Saccharomyces cerevisiae 9763 [14]: 50 mm | Disk Diffusion, Cryptococcus neoformans 32045 [15]: 42 mm

CO[C@H]1/C=C/O[C@@]2(C)Oc3c(C)c(O)c4c(O)c(c(/C=N/N5CCN(C)CC5)c(O)c4c3C2=O)NC(=O)/C(C)=C\C=C\[C@H](C)[C@H](O)[C@@H](C)[C@@H](O)[C@@H](C)[C@H](OC(C)=O)[C@@H]1C [Rifampicin, reference compound]
IC50 [16]: < 1000 ng/mL | % [3H]uridine (RNA synthesis) incorporation of that of the untreated culture ([17]; 5 min): 13% | % [3H]uridine (RNA synthesis) incorporation of that of the untreated culture ([17]; 10 min): 15% | 1×MIC against Bacillus subtilis [18]: 0.25 micrograms/ml | % [3H]N-acetyl glucosamine (Cell wall synthesis) incorporation of that of the untreated culture ([19]; 5 min): 47% | % [3H]N-acetyl glucosamine (Cell wall synthesis) incorporation of that of the untreated culture ([19]; 10 min): 48%

Penicillin
diameter of the zone of inhibition, Enterococcus faecium ATCC 49624 [20]: 21 mm | diameter of the zone of inhibition, Enterococcus faecium ATCC 51559 [21]: 0 mm

munumbicin D
MIC Staphyloccus aureus MH II Eli Lilly Co. [22]: 0.4 micrograms/ml | IC50 Plasmodium falciparum [4]: 4.5 ± 0.7 ng/mL | IC50 Human Primary Mammary Epithelial HMEC [23]: 0.425 micrograms/ml | IC50 Human Breast Cancer Epithelial BT-20 [24]: 0.07 micrograms/ml | IC50 Human Lung Cancer Epithelial A549 [5]: 2.6 micrograms/ml | IC50 Human Cervical Cancer Epithelial ME180 [6]: 0.2 micrograms/ml | diameter of the zone of inhibition, Neisseria gonnorhea ATCC 49226 [25]: 9 mm | diameter of the zone of inhibition, Enterococcus faecalis ATCC 51299 [26]: 16 mm | diameter of the zone of inhibition, Candida krusei ATCC 6258 ([7]; 10 micrograms per disk, 35° C.): R | diameter of the zone of inhibition, Streptococcus pneumoniae ATCC 49619 [27]: 16 mm | LC50 brine shrimp [28]: 1.7 micrograms/ml | MIC Candida albicans [1]: >10 micrograms/ml | diameter of the zone of inhibition, Candida parasilosis ATCC 22019 ([8]; 10 micrograms per disk, 35° C.): R | diameter of the zone of inhibition, Escherichia coli ATCC 25922 [29]: R | concentration causing detectable lysis of human red blood cells [30]: > 80 micrograms/ml | diameter of the zone of inhibition, Staphylococcus aureus ATCC 29213 [31]: 13 mm | diameter of the zone of inhibition, Acinetobacter sp. ATCC 49137 [32]: R | diameter of the zone of inhibition, Candida albicans ATCC 90028 ([9]; 10 micrograms per disk, 35° C.): R | diameter of the zone of inhibition, Candida parasdosis ATCC 90018 ([10]; 10 micrograms per disk, 35° C.): R | MIC Rhizoctonia solani [33]: 15.6 micrograms/ml | MIC Pythium ultimum [34]: 0.4 micrograms/ml | MIC Sclerotinia sclerotiorum [35]: 2.0 micrograms/ml | MIC Pseudomonas syringae [36]: 0.2 micrograms/ml | MIC Phytophthora cinnamomi [37]: 15.6 micrograms/ml | MIC Geotrichum candidum [38]: 31.2 micrograms/ml | diameter of the zone of inhibition, Vibrio fischeri PIC 345 [39]: 12 mm | diameter of the zone of inhibition, Candida tropicalis ATCC 750 ([11]; 10 micrograms per disk, 35° C.): R | diameter of the zone of inhibition, S. epidermis ATCC 12228 [40]: 14 mm | diameter of the zone of inhibition, Candida albicans ATCC 24433 ([12]; 10 micrograms per disk, 35° C.): R | diameter of the zone of inhibition, Enterococcus faecalis ATCC 29212 [41]: 16 mm | diameter of the zone of inhibition, Candida glabrata ATCC 2001 ([13]; 10 micrograms per disk, 35° C.): R | diameter of the zone of inhibition, Shigella dysenteriae ATCC 11835 [42]: R | MIC Cryptococcus neoformans [2]: 10 micrograms/ml | diameter of the zone of inhibition, S. maltophilia ATCC 13637 [43]: R | diameter of the zone of inhibition, Pseudomonas aeruginosa ATCC 27853 [44]: R | MIC Aspergillus fumigatus [3]: 20 micrograms/ml
